Where no end group is shown, it is not given here.
Experiments:
[1] = test system: human Kv1.1 channel (hKv1.1); details: read-out: IC50 on Kv1.1; positive control applied at a concentration equivalent to its IC50; no reference given; cited from earlier work
Method: (§4) Voltage protocols: For measurement of Kv1.1 to 1.3 currents, voltage steps to +50 mV were applied from a holding potential of −120 mV and the peak current was measured every 15 s. For Kv1.3 currents, 15-ms-long depolarizing pulses were applied. For Kv1.1, 50-ms-long–activating stimuli were used. Kv1.2 currents were evoked by 200-ms-long pulses. […] The remaining current fraction at a given molar concentration was calculated ...

[2] = test system: human Kv1.3 channel (hKv1.3); details: read-out: IC50 on Kv1.3; positive control applied at a concentration equivalent to its IC50; no reference given; cited from earlier work
Method: as §4

[3] = test system: human Kv1.3 channel (hKv1.3); assay type: cell-based; details: TEA+ 10 mM, positive control; human lymphocytes
Method: (§1) Human Kv1.3 currents were recorded from activated peripheral blood mononuclear cells (see below) 3 to 4 days after activation. Heparinized human peripheral venous blood was obtained from healthy volunteers. Mononuclear cells were separated through Histopaque-1077 density gradient centrifugation. Collected cells were washed twice with Ca^2+- and Mg^2+-free Hanks’ solution containing 25 mM Hepes buffer, pH 7.4. Cells were cultured for 3 to 4 days in 24-well culture plates in a 5% CO2 incubator at 37 °C, in RPMI 1640 medium supplemented with 10% fetal calf serum (Sigma-Aldrich), 100 μg/ml penicillin, 100 μg/ml streptomycin, and 2 mM L-glutamine (density, 0.5 × 10^6 cells per ml). Phytohemagglutinin A (Sigma-Aldrich) was added to the medium at 10 μg/ml to amplify the Kv1.3 expression. Cells were washed gently twice with 2 ml of ECS for the patch-clamp experiments.
(§2) Conventional whole-cell patch-clamp electrophysiology was used to record ionic currents. Micropipettes were pulled from GC150F-7.5 borosilicate capillaries (Harvard Apparatus) with tip diameters between 0.5 and 1 μm resulting in a tip resistance of 2 to 8 MΩ in the extracellular (bath) solution. All measurements were carried out by using Axopatch 200B amplifier connected to a personal computer using Axon Digidata 1550A data acquisition hardware and Pclamp10.7 software (https://support.moleculardevices.com/s/article/Axon-pCLAMP-10-Electrophysiology-Data-Acquisition-Analysis-Software-Download-Page). The holding potential was −120 mV. Records were discarded when leak at the holding potential was >10% of peak current at the test potential. Experiments were performed at room temperature (20–24 °C). Before analysis, whole-cell current traces were corrected for ohmic leakage and digitally filtered with a three-point boxcar smoothing filter.
Solutions: all salts and components of the solutions were purchased from Sigma Aldrich. […]
Native peptides, phage-expressed peptides, and positive controls used for them were dissolved in ECS supplemented with 0.1 mg/ml bovine serum albumin (BSA; Sigma-Aldrich Hungary). Bath perfusion around the measured cell with different extracellular solutions was achieved using a gravity flow micro perfusion system using a rate of 0.5 ml/min. […]
(§3) Voltage protocols: For measurement of Kv1.1 to 1.3 currents, voltage steps to +50 mV were applied from a holding potential of −120 mV and the peak current was measured every 15 s. […] The remaining current fraction at a given molar concentration was calculated as I/I0, where I0 is the peak current in the absence and I is the peak current at equilibrium block or […] after ∼2 min perfusion by the investigated peptide/phage.

[4] = target: T1, KcsA-Kv1.3 T-only chimera (Streptomyces lividans, UniProt P0A334, A54D/A57S/G53D/G56T/I60S/L59F/Q58G/R52A/R64D/T61S/Y62I); assay: Phage ELISA-binding assay, KcsA-Kv1.3 T-only; design: species or system human Kv1.3 turret in Streptomyces lividans KcsA; details: toxin displayed on M13 phage
T1 construct: made in house; host or cells: E. coli XL1-Blue (pQE30)
T1 sequence (P0A334 1-160 R52A/G53D/A54D/G56T/A57S/Q58G/L59F/I60S/T61S/Y62I/R64D): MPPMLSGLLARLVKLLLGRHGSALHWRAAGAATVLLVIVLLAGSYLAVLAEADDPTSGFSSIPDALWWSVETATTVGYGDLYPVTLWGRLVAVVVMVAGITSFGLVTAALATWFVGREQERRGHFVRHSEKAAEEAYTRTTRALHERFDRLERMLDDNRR
Method: Phage display test solutions were prepared according to routine phage display protocols ([62]). Phosphorylated and annealed oligonucleotides encoding the peptide construct were ligated into linearized pAS62 phagemid vector (https://patents.google.com/patent/WO2022144560A1/en) at a vector/insert ratio of 1:3. The final phagemid construct harbored a signal sequence followed by the peptide of interest, a linker sequence ([…]), and the C-terminal part of the P3 coat protein (amino acids: 216-424 of NP_510891.1). […] The particle concentrations of phage solutions were determined using a NanoDrop One C (Thermo Fisher Scientific) spectrophotometer. The phage particle concentration was assessed according to the formula: (A268–A320) × 5 × 10^12 particles/ml ([62]). […]
Phage stock solutions were diluted to working concentration with phage resuspension buffer supplemented with 2 mM DDM. […] Following blocking, the wells were washed 4× with washing buffer (300 μl TBS-Tween, 0.1% v/v) using a Wellwash Versa microplate washer (Thermo Fisher Scientific); then 50 μl phage solution (in TBS-BSA-Tween, 0.1% v/v, 2 mM DDM) at determined phage concentration was added to the wells and incubated for 1 h at room temperature on a horizontal shaker. […]

[5] = test system: human Kv1.3 channel (hKv1.3); assay: Whole-cell patch-clamp of phage-displayed toxins, hKv1.3 in human lymphocytes; assay type: cell-based; details: perfusion concentration; phage-displayed toxin; experimentally titrated; N = 3
Method: as §1, §2
Solutions: all salts and components of the solutions were purchased from Sigma Aldrich. The extracellular (bath) solution (ECS) contained 145 mM NaCl, 5 mM KCl, 2.5 mM CaCl2, 1 mM MgCl2, 10 mM Hepes, and 5.5 mM glucose (pH 7.35 with NaOH), while the intracellular (pipette) solution (ICS) contained 140 mM KF, 2 mM MgCl2, 1 mM CaCl2, 11 mM EGTA, and 10 mM Hepes (pH 7.22 with KOH). The osmolarity of the ECS and ICS were 302 mOsM.
Native peptides, phage-expressed peptides, and positive controls used for them were dissolved in ECS supplemented with 0.1 mg/ml bovine serum albumin (BSA; Sigma-Aldrich Hungary). Bath perfusion around the measured cell with different extracellular solutions was achieved using a gravity flow micro perfusion system using a rate of 0.5 ml/min. Excess fluid was removed continuously.
as §3, with “s. For Kv1.3 currents, 15-ms-long depolarizing pulses were applied. For Kv1.1, 50-ms-long–activating stimuli were used. Kv1.2 currents were evoked by 200-ms-long pulses.” for “s.”
Phage display test solutions were prepared according to routine phage display protocols ([62]). Phosphorylated and annealed oligonucleotides encoding the peptide construct were ligated into linearized pAS62 phagemid vector (https://patents.google.com/patent/WO2022144560A1/en) at a vector/insert ratio of 1:3. The final phagemid construct harbored a signal sequence followed by the peptide of interest, a linker sequence ([…]), and the C-terminal part of the P3 coat protein (amino acids: 216-424 of NP_510891.1). Chemically competent XL1-Blue E. coli cells (2022249, Agilent) were transformed with the ligation product and then streaked onto ampicillin (100 μg/ml) containing LB/Amp plates and incubated for 16 h at 37 °C.

[6] = test system: human Kv1.2 channel (hKv1.2); details: positive control applied at a concentration equivalent to its IC50; no reference given; cited from earlier work
Method: as §4

[7] = test system: T+F chimera variant mutated at T84; assay: Phage binding to T84-mutated T+F chimera, pilot experiment; details: pilot experiment (not shown)
Method: Phage stock solutions were diluted to working concentration with phage resuspension buffer supplemented with 2 mM DDM. For protein immobilization, the following amounts were used in a final volume of 50 μl/well: wt KcsA, 0.1 μg; KcsA-Kv1.1 T-only, 0.005 μg; KcsA-Kv1.1 T+F, 0.02 μg; KcsA-Kv1.2 T-only, 0.01 μg; KcsA-Kv1.2 T+F, 0.1 μg; KcsA-Kv1.3 T-only, 0.01 μg; and KcsA-Kv1.3 T+F, 0.1 μg. Protein samples were diluted in 50 μl of storage buffer (20 mM Tris pH8.0, 300 mM KCl, 2 mM DDM) and were added to the designated wells of a Pierce Clear, 96-Well Nickel Coated Plate (15442, Thermo Fisher Scientific), then incubated for 1 h at room temperature on a horizontal shaker at 130 rpm. The plate was blocked for 1 h at room temperature with 180 μl/well TBS-BSA supplemented with 1 mM DDM. Following blocking, the wells were washed 4× with washing buffer (300 μl TBS-Tween, 0.1% v/v) using a Wellwash Versa microplate washer (Thermo Fisher Scientific); then 50 μl phage solution (in TBS-BSA-Tween, 0.1% v/v, 2 mM DDM) at determined phage concentration was added to the wells and incubated for 1 h at room temperature on a horizontal shaker. […] The light absorbance signal was read at 450 nm with Byonoy absorbance 96 plate reader (Byonoy GmbH).

CC[N+](CC)(CC)CC [TEA+, tetraethylammonium]
IC50 [1]: 300 µM | IC50 [2]: 10000 µM | inhibition of Kv1.3 current [3]: approximately 50%

HgTX1-phage: HgTx1 fused to the P3 coat protein of M13 phage with an eight amino acid linker (TVIDVKCTSPKQCLPPCKAQFGIRAGAKCMNGKCKCYPH-{GSASSATR-M13 P3 coat protein (216-424)}; not fully specified; ends and bridges not checked)
phage binding to KcsA-Kv1.3 T-only, in words [4]: weaker binding | phage concentration giving approximate 50% block of hKv1.3 current [5]: ~1.8 x 10^12 particle/ml

charybdotoxin
IC50 [6]: 0.014 µM

MTX-expressing phages: MTX displayed on M13 phage (VSCTGSKDCYAPCRKQTGCPNAKCINKSCKCYGC-{GSASSATR-M13 P3 coat protein (216-424)}; not fully specified; ends and bridges not checked)
binding to T+F chimera variant mutated at T84, in words [7]: did not diminish when T84 was mutated

— article PMC11002876, “KcsA-Kv1.x chimeras with complete ligand-binding sites provide improved predictivity for screening selective Kv1.x blockers” (The Journal of Biological Chemistry, 2024)
